Data reported in ChEMBL document CHEMBL1150637, “African elephant sesquiterpenes. II. Identification and synthesis of new derivatives of 2,3-dihydrofarnesol” (J Nat Prod, 2002).
Calls of active or inactive are those of the source. No cut-off for these calls is given here.

System: Mycobacterium tuberculosis
Experiment: Antimycobacterial activity against Mycobacterium tuberculosis by radiorespirometric bioassay
Assay type: functional, organism-based

`CC(C)=CCC/C(C)=C/CC/C(C)=C/CO` was tested, and the Activity was “Active”.
